Where “and” joins values, the source holds several entries; their conditions need not be identical. Equal values may be shown once.
System: 883617-216-R-J1-PDC complex spheroid viability
Experiment: Anticancer human tumor 883617-216-R-J1-PDC patient-derived bladder carcinoma cell line growth inhibition
Conditions: for viability, T/C: stronger effect = lower value
Summary of the method: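 Multicellular complex spheroids of tumor cells with human endothelial cells (HUVEC) and mesenchymal stem cells; the LSD1 inhibitor iadademstat was combined with standard-of-care or investigational agents. Top concentration at or near clinical Cmax, half-log dilutions; final DMSO ≤0.25%.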

[1] = curve of first compound, second compound 0.1 µM
[2] = curve of first compound, second compound 0.316 µM
[3] = curve of first compound, second compound 1 µM
[4] = curve of first compound, second compound 3.16 µM
[5] = curve of first compound, second compound 10 µM
[6] = second compound 0.1 µM, first compound 0.00949 µM
[7] = second compound 0.1 µM, first compound 0.03 µM
[8] = second compound 0.1 µM, first compound 0.0949 µM
[9] = second compound 0.1 µM, first compound 0.3 µM
[10] = second compound 0.1 µM, first compound 0.949 µM
[11] = second compound 0.1 µM, first compound 3 µM
[12] = second compound 0.316 µM, first compound 0.00949 µM
[13] = second compound 0.316 µM, first compound 0.03 µM
[14] = second compound 0.316 µM, first compound 0.0949 µM
[15] = second compound 0.316 µM, first compound 0.3 µM
[16] = second compound 0.316 µM, first compound 0.949 µM
[17] = second compound 0.316 µM, first compound 3 µM
[18] = second compound 1 µM, first compound 0.00949 µM
[19] = second compound 1 µM, first compound 0.03 µM
[20] = second compound 1 µM, first compound 0.0949 µM
[21] = second compound 1 µM, first compound 0.3 µM
[22] = second compound 1 µM, first compound 0.949 µM
[23] = second compound 1 µM, first compound 3 µM
[24] = second compound 3.16 µM, first compound 0.00949 µM
[25] = second compound 3.16 µM, first compound 0.03 µM
[26] = second compound 3.16 µM, first compound 0.0949 µM
[27] = second compound 3.16 µM, first compound 0.3 µM
[28] = second compound 3.16 µM, first compound 0.949 µM
[29] = second compound 3.16 µM, first compound 3 µM
[30] = second compound 10 µM, first compound 0.00949 µM
[31] = second compound 10 µM, first compound 0.03 µM
[32] = second compound 10 µM, first compound 0.0949 µM
[33] = second compound 10 µM, first compound 0.3 µM
[34] = second compound 10 µM, first compound 0.949 µM
[35] = second compound 10 µM, first compound 3 µM
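Also: exposure lasted seven days after three days of spheroid growth.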
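For viability, T/C in this document: 100% = DMSO vehicle control luminescence.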

`O=C(C=Cc1cccc(S(=O)(=O)Nc2ccccc2)c1)NO` + NC1CCC(NC2CC2c2ccccc2)CC1 showed an IC50 [1] of 142 nM, an IC50 [2] of 131 nM and an IC50 [3] of 139 nM. For the same compound, the IC50 [4] was 139 nM, the IC50 [5] was 124 nM and the viability, T/C [6] was 102%. For the same compound, the viability, T/C [7] was 92.8%, the viability, T/C [8] was 55.3% and the viability, T/C [9] was 31.2%. The viability, T/C [10] was 20.7%, the viability, T/C [11] was 2.88% and the viability, T/C [12] was 108%. It also gave a viability, T/C [13] of 98.6%, a viability, T/C [14] of 50% and a viability, T/C [15] of 31.7%. It also gave a viability, T/C [16] of 20.9%, a viability, T/C [17] of 2.02% and a viability, T/C [18] of 95.7%. It also gave a viability, T/C [19] of 84.3%, a viability, T/C [20] of 57.4% and a viability, T/C [21] of 30.8%. The viability, T/C [22] was 18.9%, the viability, T/C [23] was 2.72% and the viability, T/C [24] was 101%. For the same compound, the viability, T/C [25] was 84.2%, the viability, T/C [26] was 55.7% and the viability, T/C [27] was 34.2%. It also gave a viability, T/C [28] of 17.8%, a viability, T/C [29] of 2.63% and a viability, T/C [30] of 99.5%. It also gave a viability, T/C [31] of 76.4%, a viability, T/C [32] of 55.3% and a viability, T/C [33] of 32.6%. The viability, T/C [34] was 19.6% and the viability, T/C [35] was 1.64%.
`CC1COCCN1c1cc(C2(S(C)(=N)=O)CC2)nc(-c2ccnc3[nH]ccc23)n1` (configuration not stated) was tested, and the viability, T/C (compound 0.0316 µM) was 103% and 94.9%, the viability, T/C (compound 0.1 µM) was 98.4% and 71.9% and the viability, T/C (compound 0.316 µM) was 65.3% and 47.5%. The viability, T/C (compound 1 µM) was 44.2% and 42.4%, the viability, T/C (compound 3.16 µM) was 39.6% and 31.8% and the viability, T/C (compound 10 µM) was 28.1% and 23.8%. For the same compound, the IC50 (curve of compound) was 721 nM and 377 nM.
Work on `NS(=O)(=O)OCC1CC(n2ccc3c(NC4CCc5ccccc54)ncnc32)CC1O` (configuration not stated) + NC1CCC(NC2CC2c2ccccc2)CC1 yielded an IC50 [1] of 399 nM, an IC50 [2] of 497 nM and an IC50 [3] of 453 nM. For the same compound, the IC50 [4] was 500 nM, the IC50 [5] was 392 nM and the viability, T/C [6] was 111%. The viability, T/C [7] was 121%, the viability, T/C [8] was 106% and the viability, T/C [9] was 59.8%. It also gave a viability, T/C [10] of 20.7%, a viability, T/C [11] of 15.2% and a viability, T/C [12] of 118%. The viability, T/C [13] was 113%, the viability, T/C [14] was 113% and the viability, T/C [15] was 73.8%. It also gave a viability, T/C [16] of 19.4%, a viability, T/C [17] of 15.6% and a viability, T/C [18] of 102%. For the same compound, the viability, T/C [19] was 116%, the viability, T/C [20] was 105% and the viability, T/C [21] was 67%. It also gave a viability, T/C [22] of 19.5%, a viability, T/C [23] of 14% and a viability, T/C [24] of 101%. For the same compound, the viability, T/C [25] was 106%, the viability, T/C [26] was 99.5% and the viability, T/C [27] was 73.8%. The viability, T/C [28] was 20.2%, the viability, T/C [29] was 13.7% and the viability, T/C [30] was 113%. It also gave a viability, T/C [31] of 117%, a viability, T/C [32] of 107% and a viability, T/C [33] of 58.9%. The viability, T/C [34] was 20.8% and the viability, T/C [35] was 14.6%.
`O=C(c1cc(Cc2n[nH]c(=O)c3ccccc23)ccc1F)N1CCN(C(=O)C2CC2)CC1` + NC1CC1c1ccc(-c2cccc(O)c2)cc1 gave an IC50 [1] of 855 nM, an IC50 [2] of 784 nM and an IC50 [3] of 1070 nM. The IC50 [4] was 526 nM, the IC50 [5] was 160 nM and the viability, T/C (second compound 0.1 µM, first compound 0.0316 µM) was 94.1%. The viability, T/C (second compound 0.1 µM, first compound 0.1 µM) was 86.6%, the viability, T/C (second compound 0.1 µM, first compound 0.316 µM) was 72.5% and the viability, T/C (second compound 0.1 µM, first compound 1 µM) was 45.8%. For the same compound, the viability, T/C (second compound 0.1 µM, first compound 3.16 µM) was 37.5%, the viability, T/C (second compound 0.1 µM, first compound 10 µM) was 36.4% and the viability, T/C (second compound 0.316 µM, first compound 0.0316 µM) was 96%. The viability, T/C (second compound 0.316 µM, first compound 0.1 µM) was 87.7%, the viability, T/C (second compound 0.316 µM, first compound 0.316 µM) was 65.5% and the viability, T/C (second compound 0.316 µM, first compound 1 µM) was 46.5%. For the same compound, the viability, T/C (second compound 0.316 µM, first compound 3.16 µM) was 34.9%, the viability, T/C (second compound 0.316 µM, first compound 10 µM) was 31.9% and the viability, T/C (second compound 1 µM, first compound 0.0316 µM) was 91.3%. For the same compound, the viability, T/C (second compound 1 µM, first compound 0.1 µM) was 71.8%, the viability, T/C (second compound 1 µM, first compound 0.316 µM) was 60.8% and the viability, T/C (second compound 1 µM, first compound 1 µM) was 59.5%. For the same compound, the viability, T/C (second compound 1 µM, first compound 3.16 µM) was 33.5%, the viability, T/C (second compound 1 µM, first compound 10 µM) was 26.9% and the viability, T/C (second compound 3.16 µM, first compound 0.0316 µM) was 93.3%. It also gave a viability, T/C (second compound 3.16 µM, first compound 0.1 µM) of 84.1%, a viability, T/C (second compound 3.16 µM, first compound 0.316 µM) of 53.7% and a viability, T/C (second compound 3.16 µM, first compound 1 µM) of 42.1%. It also gave a viability, T/C (second compound 3.16 µM, first compound 3.16 µM) of 35.9%, a viability, T/C (second compound 3.16 µM, first compound 10 µM) of 25.5% and a viability, T/C (second compound 10 µM, first compound 0.0316 µM) of 58%. For the same compound, the viability, T/C (second compound 10 µM, first compound 0.1 µM) was 53.4%, the viability, T/C (second compound 10 µM, first compound 0.316 µM) was 47.1% and the viability, T/C (second compound 10 µM, first compound 1 µM) was 38%. It also gave a viability, T/C (second compound 10 µM, first compound 3.16 µM) of 31.1% and a viability, T/C (second compound 10 µM, first compound 10 µM) of 26.5%.
